Where “and” joins values, the source holds several entries; their conditions need not be identical. Identical values can stand only once.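 Dose response: 5 concentrations. Exposure: 48 h. Format: 96-well plates. Endpoint: linear interpolation; highest concentration if not reached. GI50 is the concentration that inhibits growth by half. TGI: concentration producing complete growth inhibition.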 A value given as a limit tells only on which side of the number the result lay.

Some test systems named below: SF-295 CNS; OVCAR-3 ovarian; PC-3 prostate; SK-OV-3 ovarian; SK-MEL-5 melanoma; HL-60(TB) leukemia; HOP-92 NSCLC; HCC-2998 colon; NCI-H23 lung; NCI-H460 lung.
Holding throughout (assay): inhibition of tumour cell growth, NCI panel, 48 h

Take `O=S(=O)(O)c1cc(O)c(N=Nc2ccc(O)cc2O)c2ccccc12`: the TGI with SF-295 CNS, in the assay on OVCAR-3 ovarian, with PC-3 prostate, with SK-OV-3 ovarian, in the assay on SK-MEL-5 melanoma and in the assay on HL-60(TB) leukemia was greater than 100 µM throughout. This compound also displayed a TGI in the assay with HOP-92 NSCLC greater than 100 µM.
As for `COc1cc(Nc2ncc(-c3ccccc3)o2)cc(OC)c1`, the GI50 in the assay on SF-295 CNS, in the assay with OVCAR-3 ovarian, with PC-3 prostate, with HCC-2998 colon, in the assay on SK-OV-3 ovarian and in the assay on NCI-H23 lung was greater than 25 µM throughout. Further, the GI50 in the assay on SK-MEL-5 melanoma is greater than 25 µM; with NCI-H460 lung it was greater than 20.4 µM; with HL-60(TB) leukemia, greater than 25 µM; in the assay with HOP-92 NSCLC, greater than 25 µM. Moreover, the TGI with SF-295 CNS, in the assay with OVCAR-3 ovarian, in the assay on PC-3 prostate, in the assay on HCC-2998 colon, in the assay on SK-OV-3 ovarian and in the assay on NCI-H23 lung was greater than 25 µM in each case. The TGI in the assay on SK-MEL-5 melanoma, in the assay with NCI-H460 lung, with HL-60(TB) leukemia and in the assay with HOP-92 NSCLC was greater than 25 µM each time.
On to `COC(=O)[C@H](Cc1cnc[nH]1)NC(=O)[C@@H](NC(=O)Nc1cc(C(F)(F)F)cc(C(F)(F)F)c1)C(C)C`, for which the GI50 is 16.1 µM in the assay on SF-295 CNS; 14.7 µM in the assay with OVCAR-3 ovarian; 14.5 µM in the assay with PC-3 prostate; 15.9 µM with HCC-2998 colon; 18.5 µM with SK-OV-3 ovarian; 16.4 µM in the assay on NCI-H23 lung. Further, the GI50 in the assay with SK-MEL-5 melanoma was 17.1 µM; in the assay on NCI-H460 lung it was 18.7 µM; with HL-60(TB) leukemia, 20.2 µM; in the assay with HOP-92 NSCLC it was 5.33 µM. Further, the TGI was 31.8 µM with SF-295 CNS; 28.3 µM with OVCAR-3 ovarian; 28.4 µM with PC-3 prostate; 30.7 µM in the assay with HCC-2998 colon; 32.5 µM in the assay with SK-OV-3 ovarian; 31.7 µM in the assay with NCI-H23 lung. Further, the TGI in the assay on SK-MEL-5 melanoma stood at 31.1 µM; in the assay with NCI-H460 lung, 37.3 µM; in the assay with HL-60(TB) leukemia, 39.3 µM.
On to `CC1(C)CNc2cc(NC(=O)c3cccnc3NCc3ccncc3)ccc21`, for which the GI50 in the assay on SF-295 CNS was 24.2 µM; in the assay on OVCAR-3 ovarian, 21.9 µM; in the assay on PC-3 prostate, 25.4 µM; with HCC-2998 colon, 39 µM; in the assay with SK-OV-3 ovarian, 26.5 µM; with NCI-H23 lung it was 27.6 µM. For the same compound, the GI50 with SK-MEL-5 melanoma was 16 µM; in the assay with NCI-H460 lung, 32.3 µM; in the assay on HL-60(TB) leukemia, 28 µM; in the assay on HOP-92 NSCLC it was 19.4 µM. Besides, the TGI was greater than 100 µM in the assay on SF-295 CNS; greater than 77.5 µM with OVCAR-3 ovarian; greater than 100 µM in the assay on PC-3 prostate; greater than 100 µM with HCC-2998 colon; greater than 100 µM in the assay on SK-OV-3 ovarian; greater than 100 µM in the assay with NCI-H23 lung. Further, the TGI is 30.8 µM with SK-MEL-5 melanoma, greater than 100 µM in the assay with NCI-H460 lung, 81.5 µM with HL-60(TB) leukemia and 80.6 µM in the assay with HOP-92 NSCLC.
Regarding `COCc1c(-c2cc3cc(C)cc(OC)c3s2)c2c(N)ncnn2c1CN1CCNC(=O)C1`, the GI50 in the assay on SF-295 CNS is 3.05 µM; with OVCAR-3 ovarian it was 8.08 µM; with PC-3 prostate, 8.54 µM; in the assay on HCC-2998 colon it was 8.37 µM; with SK-OV-3 ovarian, 2.62 µM; in the assay on NCI-H23 lung, 4.45 µM. Further, the GI50 in the assay on SK-MEL-5 melanoma is 6.16 µM; in the assay with NCI-H460 lung it was 4.05 µM; in the assay with HL-60(TB) leukemia it was 8.71 µM; in the assay with HOP-92 NSCLC, 1.29 µM. Moreover, the TGI was 21.5 µM in the assay with SF-295 CNS; greater than 100 µM in the assay with OVCAR-3 ovarian; greater than 100 µM in the assay on PC-3 prostate; greater than 100 µM with HCC-2998 colon; 7.72 µM with SK-OV-3 ovarian; 70.7 µM with NCI-H23 lung. Moreover, the TGI in the assay with SK-MEL-5 melanoma is 18.6 µM; in the assay with NCI-H460 lung, greater than 100 µM; with HL-60(TB) leukemia, 32.7 µM; in the assay on HOP-92 NSCLC, 5.92 µM.
As to `COc1ccc(Cc2coc3ccccc3c2=O)cc1OC`, the TGI with SF-295 CNS was greater than 100 µM; with OVCAR-3 ovarian, greater than 100 µM; with PC-3 prostate, greater than 100 µM; with SK-OV-3 ovarian, greater than 100 µM; in the assay with NCI-H23 lung, greater than 100 µM; in the assay with SK-MEL-5 melanoma it was 67.8 µM. In addition, the TGI with NCI-H460 lung, in the assay on HL-60(TB) leukemia and with HOP-92 NSCLC was greater than 100 µM each time.
Turning to `CNC(=O)c1cc(Oc2ccc(NC(=O)Nc3ccc(Cl)c(C(F)(F)F)c3)c(F)c2)ccn1`, the GI50 was 2.82 µM and 2.29 µM with SF-295 CNS; 3.05 µM and 3.03 µM in the assay on OVCAR-3 ovarian; 2.82 µM and 2.7 µM in the assay on PC-3 prostate; 2.44 µM and 1.9 µM with HCC-2998 colon; 3.2 µM and 2.43 µM in the assay on SK-OV-3 ovarian; 1.42 µM and 1.44 µM in the assay on NCI-H23 lung. In addition, the GI50 in the assay on SK-MEL-5 melanoma is 1.5 µM and 1.35 µM; with NCI-H460 lung, 2.67 µM and 2.86 µM; in the assay with HL-60(TB) leukemia it was 0.518 µM and 0.539 µM; in the assay with HOP-92 NSCLC it was 0.822 µM and 0.74 µM. Besides, the TGI is 19.8 µM and > 10 µM with SF-295 CNS; 11.6 µM and > 10 µM in the assay on OVCAR-3 ovarian; greater than 64.6 µM with PC-3 prostate; 10.4 µM and 8.17 µM in the assay with HCC-2998 colon; 12.3 µM and 8.49 µM in the assay on SK-OV-3 ovarian; 6.29 µM and 7.14 µM in the assay on NCI-H23 lung. The TGI in the assay with SK-MEL-5 melanoma is 2.94 µM and 3.16 µM; with NCI-H460 lung, 9.42 µM and > 10 µM; in the assay on HL-60(TB) leukemia, 2.68 µM and 4.1 µM; in the assay with HOP-92 NSCLC it was 5.55 µM and 5.15 µM.
Take `CC(N)(Cc1c[nH]c2cccc(F)c12)C(=O)O` (stereo not given): the GI50 is greater than 1000 µM with SF-295 CNS; greater than 1000 µM with OVCAR-3 ovarian; greater than 1000 µM with PC-3 prostate; greater than 1000 µM with HCC-2998 colon; 992 µM with SK-OV-3 ovarian; greater than 1000 µM in the assay on NCI-H23 lung. Also, the GI50 in the assay with SK-MEL-5 melanoma, in the assay with NCI-H460 lung and with HL-60(TB) leukemia was greater than 1000 µM each time. In addition, the TGI with SF-295 CNS, with OVCAR-3 ovarian, in the assay on PC-3 prostate, with HCC-2998 colon, with SK-OV-3 ovarian and with NCI-H23 lung was greater than 1000 µM each time. Moreover, the TGI with SK-MEL-5 melanoma, with NCI-H460 lung, in the assay with HL-60(TB) leukemia and in the assay with HOP-92 NSCLC was greater than 1000 µM in each case.
In the case of `COC(=O)c1ccc(CN2C(=O)C(Cl)=C(Nc3cccc(Cl)c3C)C2=O)cc1`, the GI50 in the assay on SF-295 CNS was 35.4 µM; in the assay on OVCAR-3 ovarian it was 20.2 µM; in the assay with PC-3 prostate, 37.6 µM; in the assay on HCC-2998 colon it was 32.5 µM; in the assay with SK-OV-3 ovarian it was greater than 100 µM; in the assay with NCI-H23 lung, 10.3 µM. Besides, the GI50 is 1.08 µM in the assay with SK-MEL-5 melanoma, 34.5 µM in the assay with NCI-H460 lung and 17 µM in the assay on HOP-92 NSCLC. For the same compound, the TGI is greater than 100 µM in the assay on SF-295 CNS; 70.3 µM in the assay on OVCAR-3 ovarian; greater than 100 µM with PC-3 prostate; 67.5 µM in the assay with HCC-2998 colon; greater than 100 µM with SK-OV-3 ovarian; greater than 100 µM in the assay on NCI-H23 lung. In addition, the TGI is 3.94 µM in the assay on SK-MEL-5 melanoma, greater than 100 µM in the assay with NCI-H460 lung and greater than 100 µM in the assay with HOP-92 NSCLC.
As to `Cc1cc2c(cc1Cl)S/C(=C/C(=O)O)C(Nc1ccc3ncsc3c1)=NS2(=O)=O`, the GI50 with SF-295 CNS is greater than 31.6 µM; in the assay with OVCAR-3 ovarian it was 14 µM; with PC-3 prostate, 14.2 µM; with SK-OV-3 ovarian, greater than 33.4 µM; in the assay with NCI-H23 lung, greater than 14.3 µM; with SK-MEL-5 melanoma, greater than 14.6 µM. Further, the GI50 was 16.2 µM in the assay on NCI-H460 lung, 9.16 µM in the assay on HL-60(TB) leukemia and 7.76 µM with HOP-92 NSCLC. Also, the TGI was greater than 48.1 µM in the assay on SF-295 CNS; 41.2 µM in the assay with OVCAR-3 ovarian; greater than 49.4 µM in the assay with PC-3 prostate; greater than 52 µM in the assay with SK-OV-3 ovarian; greater than 22.5 µM with NCI-H23 lung; greater than 24 µM in the assay on SK-MEL-5 melanoma. Besides, the TGI with NCI-H460 lung was greater than 100 µM; with HL-60(TB) leukemia it was greater than 100 µM; in the assay on HOP-92 NSCLC it was 21.5 µM.
Regarding `COC(=O)C1=C(O)[C@H](C(=O)OC)C2(O)C(C(=O)OC)[C@H](c3ccc(OC(=O)C(C)c4ccc(CC(C)C)cc4)cc3)C[C@@H]1[C@@H]2C(=O)OC` (stereo not given in full), the GI50 is greater than 50 µM in the assay on SF-295 CNS; greater than 50 µM in the assay with OVCAR-3 ovarian; 35 µM in the assay on PC-3 prostate; 7.95 µM in the assay on HCC-2998 colon; 38.5 µM in the assay on SK-OV-3 ovarian; 11.1 µM in the assay with NCI-H23 lung. In addition, the GI50 was 15 µM with SK-MEL-5 melanoma, 13.2 µM in the assay on NCI-H460 lung and 32.8 µM in the assay with HOP-92 NSCLC. Besides, the TGI is greater than 50 µM in the assay with SF-295 CNS; greater than 50 µM in the assay on OVCAR-3 ovarian; greater than 50 µM in the assay on PC-3 prostate; 15.8 µM in the assay with HCC-2998 colon; greater than 50 µM in the assay with SK-OV-3 ovarian; 24.9 µM in the assay on NCI-H23 lung. The TGI in the assay with SK-MEL-5 melanoma, with NCI-H460 lung and in the assay on HOP-92 NSCLC was greater than 50 µM each time.
As for `CN(C)c1ccc2oc(=O)c3ccccc3c2c1`, the TGI with SF-295 CNS was greater than 100 µM; with OVCAR-3 ovarian, greater than 100 µM; with PC-3 prostate, greater than 100 µM; in the assay with HCC-2998 colon, greater than 100 µM; in the assay with NCI-H23 lung, 64.2 µM; with SK-MEL-5 melanoma, greater than 100 µM. Besides, the TGI in the assay on NCI-H460 lung, in the assay on HL-60(TB) leukemia and with HOP-92 NSCLC was greater than 100 µM in each case.
Take `CC1=C(c2ccccc2)C(O)(c2ccccc2)C(C)C1=O` (stereo not given): the GI50 in the assay with SF-295 CNS is 12.7 µM; in the assay on OVCAR-3 ovarian, 16.5 µM; in the assay with PC-3 prostate it was 22.8 µM; in the assay with SK-OV-3 ovarian it was 20 µM; in the assay on NCI-H23 lung, 10.1 µM; in the assay with SK-MEL-5 melanoma, 14 µM. Besides, the GI50 in the assay with NCI-H460 lung was 25.1 µM; in the assay on HL-60(TB) leukemia, 16.6 µM; with HOP-92 NSCLC it was 4.07 µM. Further, the TGI with SF-295 CNS was 62.6 µM; with OVCAR-3 ovarian it was greater than 100 µM; in the assay with PC-3 prostate it was greater than 100 µM; in the assay with SK-OV-3 ovarian, greater than 100 µM; in the assay on NCI-H23 lung it was 46.4 µM; with SK-MEL-5 melanoma it was greater than 100 µM. In addition, the results for the TGI with NCI-H460 lung, in the assay on HL-60(TB) leukemia and in the assay with HOP-92 NSCLC were greater than 100 µM, 87.4 µM and 65 µM, respectively.
